Results: ChEMBL document CHEMBL1201862, “PubChem BioAssay data set” (2004)
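A five-concentration, 48-hour dose response in 96-well plates underlies each endpoint, interpolated linearly between surrounding concentrations. Here, GI50 denotes the concentration required for 50% inhibition of growth.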 Active and inactive are the calls of the source. Cut-off read from the data, not from the text of the source: active = GI50 up to about 1.1 µM and inactive = higher.

Legend:
Assay in all cases: growth of human tumour cells (NCI), 48 h
[1] = tested on: BT-549
[2] = tested on: CCRF-CEM
[3] = tested on: HOP-92
[4] = tested on: HT-29
[5] = tested on: NCI/ADR-RES
[6] = tested on: OVCAR-3
[7] = tested on: OVCAR-4
[8] = tested on: OVCAR-5
[9] = tested on: RPMI-8226
[10] = tested on: RXF 393
[11] = tested on: SF-539
[12] = tested on: SK-MEL-28
[13] = tested on: SN12C
[14] = tested on: SNB-75
[15] = tested on: SW-620
[16] = tested on: U-251
[17] = tested on: UO-31
[18] = tested on: EKVX
[19] = tested on: HL-60

Measured: GI50

COc1ccc2c(c1OC)C(=O)O[C@@H]2[C@H]1c2c(cc3c(c2OC)OCO3)CCN1C [NOSCAPINE]
inactive: [1] 45.7 µM | [2] 12.9 µM | [3] > 100 µM | [4] 40 µM | [5] 43.8 µM | [6] 16.5 µM | [7] > 100 µM | [8] > 100 µM | [9] 23.3 µM | [10] > 100 µM | [11] 30.8 µM | [12] 42.1 µM | [13] > 100 µM | [14] 4.86 µM | [15] 27 µM | [16] 41 µM | [17] 69 µM

COC(=O)[C@@H]1C[C@H]2OC(=O)CC[C@]2(C)O[C@H]1[C@H]1O[C@@](C)(O)CCC[C@H]1C
inactive: [1] > 50 µM | [2] 14.5 µM | [18] > 50 µM | [19] 8.95 µM | [4] > 50 µM | [6] > 50 µM | [7] > 50 µM | [8] > 50 µM | [9] > 50 µM | [10] > 50 µM | [11] > 50 µM | [12] > 50 µM | [13] > 50 µM | [15] > 50 µM | [16] > 50 µM | [17] > 50 µM

Cc1ccccc1NC(=N)Nc1ccccc1C
inactive: [2] > 100 µM | [18] > 100 µM | [19] > 100 µM | [4] > 100 µM | [5] > 100 µM | [6] > 100 µM | [7] > 100 µM | [8] > 100 µM | [9] > 100 µM | [10] > 100 µM | [11] > 100 µM | [12] > 100 µM | [13] > 100 µM | [14] 54.6 µM | [15] > 100 µM | [16] > 100 µM

CN1CCN(c2ccncc2S(=O)(=O)N2CCN(C)CC2)CC1
inactive: [1] > 100 µM | [18] > 100 µM | [3] > 100 µM | [4] > 100 µM | [5] > 100 µM | [6] > 100 µM | [7] > 100 µM | [8] > 100 µM | [9] > 100 µM | [10] > 100 µM | [11] > 100 µM | [12] > 100 µM | [14] > 100 µM | [15] > 100 µM | [16] > 100 µM | [17] > 100 µM

Nc1c(C(=O)O)c2ccc([N+](=O)[O-])cc2c(=O)n1-c1nc2ccccc2s1
inactive: [1] > 100 µM | [2] > 100 µM | [18] > 100 µM | [4] > 100 µM | [5] > 100 µM | [6] > 100 µM | [7] > 100 µM | [8] > 100 µM | [9] > 100 µM | [10] > 100 µM | [12] > 100 µM | [13] > 100 µM | [14] > 100 µM | [15] > 100 µM | [16] > 100 µM | [17] > 100 µM

Oc1nc(S)nc2c1CN(CCCN1CCOCC1)CN2
inactive: [1] 75.2 µM | [18] > 100 µM | [3] 37.7 µM | [4] 35.9 µM | [5] 37.8 µM | [6] 38.5 µM | [7] 38.5 µM | [8] > 100 µM | [9] 26.9 µM | [11] 25.5 µM | [12] > 100 µM | [13] 46.7 µM | [15] 32 µM | [16] 33.5 µM | [17] 36.8 µM
